Laboratory results from publication PMC10785662 (ACS Omega, 2023).

How the values were obtained:
[1] = test system: KPC tumors; test: In vivo tumor growth study, KPC tumors in athymic nude mice; parameters: species or system mouse; conditions: 20 mg/kg IV, mice with KPC tumors
[2] = Pharmacokinetic assay in mice, plasma LC-MS/MS, two-compartment model; assay type: in vivo, mouse

COc1cccc2c1C(=O)c1c(O)c3c(c(O)c1C2=O)C[C@@](O)(C(=O)CO)C[C@@H]3O[C@H]1C[C@H](N)[C@H](O)[C@H](C)O1 [doxorubicin, Doxorubicin]
time to toxicity-related fatality [1]: ≤ 1 week | toxicity-related fatality [1]: toxicity-related fatality in all mice | AUC ([2]; male, ICR, mouse, plasma, iv, 6 mg/kg): 260 ng·h/mL | T1/2β (terminal half-life) ([2]; mouse plasma, single IV dose 6.0 mg/kg doxorubicin-equivalent): 3.2 h
